Laboratory results from paper PMC9885069 (Scientific Reports, 2023).
Entries after “also recorded” stand apart in the source; their conditions may differ. Where two headings read alike, the source gives them in different places.

How the values were obtained:
HSV-1 [1] = assay type: cell-based; details: 10 μM; for anti-HSV-1 activity in NPCs: 01SD and 9001 NPCs, day 3 p.i.; for reduction of the percentage of EGFP+-RFP+ cells compared to infected cells exposed to vehicle: MOI 0.1, day 3 p.i.
HSV-1 [2] = assay: microbe, parasite or virus in culture; assay type: cell-based; details: for inhibition of HSV-1 infection (EGFP and RFP reporter expression) in brain organoids: 9001 and 01SD fourteen-week old organoids, 6000 pfu/organoid, compounds 10 μM, ACV 50 μM, day 3 p.i.
[3] = cited from earlier work
HSV-1 strain 17syn+ = assay: Mouse ocular model of HSV-1 infection, plaque assay of eye swabs; assay type: in vivo, ND4 Swiss mice
Protocol: The antiviral efficacy of compound 8 was further investigated and confirmed in an in vivo mouse model. ND4 Swiss mice were infected in the eyes with HSV-1 following light corneal scarification as described in the Materials and Methods section. At the same time that the virus was applied, one group of mice (n = 10) were treated a 50uM solution of compound 8 in DMSO and the other group (n = 10) were treated DMSO (vehicle). The eyes were treated with either vehicle or compound 8 each day for 4 days. The eyes were swabbed daily and infectious virus shedding was assessed by standard plaque assay.
Figure 9 In vivo antiviral activity. ND4 swiss mice were infected by corneal scarification with 1 × 10^5 pfu of HSV-1 strain 17syn+. Eyes were swabbed daily for 4 days and assayed for infectious virus by standard plaque assay.
ND4 Swiss mice, 4–6 weeks of age, (Envigo labs) were infected by the ocular route. Mice were anesthetized with isoflurane and the cornea were lightly scarified with a 23 ga. needle. 1 × 10^5 pfu (in 5 µl) of HSV-1 strain 17syn+ was applied to the corneal surface. At the same time, one group of mice (n = 10) were treated with 2 µL of a 50 µM solution of compound 8 in DMSO and the other group (n = 10) were treated with 2 µL DMSO (vehicle), applied to the eyes. The eyes were treated with either vehicle or compound 8 each day for 4 days. In order to assess the effect of compound 8 on the course of the infection, the eyes were swabbed daily with a Dacron swab, and the virus eluted in MEM medium. The swab eluate was assessed for the presence of infectious virus by standard plaque assay on rabbit skin cell monolayers.

01SD NPC cultures = assay: Cytotoxicity in uninfected NPC cultures, flow cytometry with fixable viability dye; details: uninfected 01SD NPCs; for cell viability of treated cultures: concentrations up to 50 μM
[4] = tested on: SARS-CoV-2 (isolate USA WA1/2020); assay: NIH-NIAID in vitro SARS-CoV2 viral replication assay in Calu3 cells; assay type: cell-based; details: for therapeutic selectivity: CC50/IC50 in Calu3 cells
[5] = tested on: host cell gene expression in 02SF NPCs; assay: RNA sequencing and Ingenuity Pathway Analysis of uninfected NPCs; assay type: cell-based, human; details: 10 μM
human brain organoids = assay: Organoid viability, calcein AM assay; assay type: cell-based; design: organoid viability: dose or concentration left out as unconfirmed
Protocol: Sixteen-week old brain organoids were infected as described above and exposed after 2 h to increasing 8 concentration ranging from 0.01 to 50 μM. At day 3 p.i. the IC50 of 8 was determined by measuring the intensity of the fluorescent reporter gene EGFP (whose expression is under the control of promoter of the immediate early HSV-1 gene ICP0) in the infected organoids was investigated. The EGFP expression was used as a proxy for viral gene expression during early stages of HSV-1 acute infection.
Figure 6 Antiviral efficacy and cytotoxicity of 8 against HSV-1 in human brain organoids. […] The IC50 was estimated by determining the corrected total cell fluorescence (CTCF) obtained by measuring EGFP fluorescence in organoids using ImageJ and normalizing for background using equation CTCF = integrated density − (area of the organoid × mean fluorescence of background readings). (B) Cytotoxicity of 8 without HSV-1 infection was assessed using calcein-AM. The fluorescence of calcein-AM in each organoid was measured and CTCF was determined as described above. […] 9001 and 01SD are printed as plot headings and were read as the test systems (organoid lines), not as substances. […]
Organoids viability was analyzed using calcein AM assay (BioLegend; catalogue # 425201), according to manufacturer’s instructions. […]

[6] = Toxicity (cell number) in Calu3 cells in the SARS-CoV-2 assay; assay type: cell-based; details: human, Calu3 (ATCC, HTB-55) cells infected with SARS-CoV-2, 48 h post-infection
[7] = tested on: eIF2α phosphorylation on serine 51; assay: Immunocytochemistry of eIF2α phosphorylated on serine 51 in NPCs; assay type: cell-based, human; details: 9001 NPCs, 10 μM, 24 h, compared to untreated or 7-treated NPCs
Protocol: The RNA sequencing data is thus fully consistent with the hypothesis that 2b and 8 trigger a host antiviral response by activating an ISR.
Figure 8 Activation of the integrated stress response in 2b- and 8-treated NPCs. (A) NPCs derived from 9001 iPSC lines were exposed to compounds 7, 8, and 2b (10 μM). After 24 h, cells were fixed and stained with an antibody that detects eIF2α phosphorylated on Serine 51 (EIF2S1). Nuclei were counterstained with Hoechst 33342, and phosphorylation was assessed by fluorescence microscopy. (B) The corrected total cell fluorescence (CTCF) was obtained by measuring EIF2S1 fluorescence in cells where a fluorescent signal could be detected and normalizing for cellular area using equation CTCF = integrated density − (cellular area × mean fluorescence of background readings). Error bars are standard deviations. One-way analysis of variance (ANOVA) followed by Bonferroni post-hoc test was used to compare CTCF among the different conditions: ** (P = 0.0042); **** (P < 0.0001). (C,D) Up-regulation of the EIF2A kinase EIF2AK3 (C) and the activated transcription factor 4 (ATF4) (D) in 2b- and 8-treated NPCs. Fold-changes were calculated from RNA-seq data described in the methods section. (E) Proposed mechanism of action of 2b and 8.

[8] = tested on: fibroblasts, hepatocytes, iPSC-derived neural progenitor cells; design: method as in PMID 30413769; details: cited from earlier work
HSV-1 [9] = details: cited from earlier work

## COc1cccc2c1C(=O)N[C@H]1[C@H](O)[C@H](O)[C@@H](O)C[C@H]21 [Compound 7, (2S,3R,4S,4aR,10bR)-2,3,4-Trihydroxy-7-methoxy-1,3,4,4a,5,10b-hexahydrophenanthridin-6(2H)-one]
HSV-1 [1]
  anti-HSV-1 activity in NPCs: no anti-HSV-1 activity
HSV-1 [2]
  inhibition of HSV-1 infection (EGFP and RFP reporter expression) in brain organoids: no anti-HSV-1 activity

## O=C1N[C@H]2[C@H](O)[C@H](O)[C@@H](O)CN2c2cc3c(cc21)OCO3 [Compound 4]
[3]
  antiviral activity: totally devoid of antiviral activity

## COc1ccc2c(c1)[C@H]1C[C@H](O)[C@@H](O)[C@@H](O)[C@@H]1NC2=O [Compound 5, (2S,3R,4S,4aR,10bR)-2,3,4-Trihydroxy-9-methoxy-1,3,4,4a,5,10b-hexahydrophenanthridin-6(2H)-one]
HSV-1 [1]
  anti-HSV-1 activity in NPCs: no anti-HSV-1 activity

## O=C1N[C@H]2[C@H](O)[C@H](O)[C@@H](O)C[C@@H]2c2cccc(O)c21 [Compound 8, (2S,3R,4S,4aR,10bR)-2,3,4,7-Tetrahydroxy-1,3,4,4a,5,10b-hexahydrophenanthridin-6(2H)-one]
HSV-1 strain 17syn+; mouse eyes, 50 µM solution in DMSO, daily for 4 days
  yield of infectious virus in the tears (HSV-1 shedding) compared to vehicle treated eyes: dramatically reduced; also recorded: dramatically reduces HSV-1 shedding
HSV-1 strain 17syn+; mouse eyes, 50 µM solution in DMSO, daily for 4 days, vs vehicle
  reduction of peak titer of infectious virus: reduced almost threefold
HSV-1 strain 17syn+; mouse eyes, 50 µM solution in DMSO, daily for 4 days, listed as 7-hydroxyl derivative
  yield of infectious virus in the tears (HSV-1 shedding) compared to vehicle treated eyes: dramatically reduced HSV-1 shedding
HSV-1 strain 17syn+; vehicle peak at day 2 post-infection
  delay of peak titer of infectious virus: delayed by one day
01SD NPC cultures
  cell viability of treated cultures: comparable
HSV-1 [1]; 01SD NPCs
  reduction of the percentage of EGFP+-RFP+ cells compared to infected cells exposed to vehicle: 6.76 fold
HSV-1 [1]; 9001 NPCs
  reduction of the percentage of EGFP+-RFP+ cells compared to infected cells exposed to vehicle: 4.65 fold
HSV-1 [2]
  inhibition of HSV-1 infection (EGFP and RFP reporter expression) in brain organoids: no expression of EGFP and RFP reporter genes
HSV-1 [2]; Human alphaherpesvirus 1, 72 h, read-out: IC50 of HSV-1 infection (EGFP intensity), 01SD organoids, sixteen-week old, day 3 p.i.
  IC50: 209 nM
HSV-1 [2]; Human alphaherpesvirus 1, 72 h, read-out: IC50 of HSV-1 infection (EGFP intensity), 9001 organoids, sixteen-week old, day 3 p.i.
  IC50: 504 nM
HSV-1 [2]; Human alphaherpesvirus 1, read-out: IC50 (EGFP CTCF), printed in Figure 6A, 01SD organoids
  IC50: 209 nM
HSV-1 [2]; Human alphaherpesvirus 1, read-out: IC50 (EGFP CTCF), printed in Figure 6A, 9001 organoids
  IC50: 504 nM
[4]
  therapeutic selectivity: 20
[5]
  expression of activated transcription factor 4 (ATF4) (RNA-seq): Up-regulation
  expression of the EIF2A kinase EIF2AK3 (RNA-seq): Up-regulation
Human brain organoids
  organoid viability: No significant reduction
Human brain organoids; without HSV-1 infection, concentrations up to 50 μM
  organoid viability (calcein AM): No significant reduction; also recorded: No significant differences in cell viability
[6]
  CC50 at 48 h: 1920 nM
[7]
  eIF2α ~ P immunoreactivity: increased

## CCC(CC)COC(=O)[C@H](C)N[P@](=O)(OC[C@H]1O[C@@](C#N)(c2ccc3c(N)ncnn23)[C@H](O)[C@@H]1O)Oc1ccccc1 [remdesivir]
[4]; Severe acute respiratory syndrome coronavirus 2, Calu-3, Calu3 cells, MOI=0.5, 2 h pretreatment, 48 h post-infection, read-out: IC50 (infection, dsRNA+ cells/total cell number)
  IC50: 60 nM

## O=C1N[C@H]2[C@H](O)[C@H](O)[C@@H](O)C[C@@H]2c2cc(O)ccc21 [Compound 6, (2S,3R,4S,4aR,10bR)-2,3,4,9-Tetrahydroxy-1,3,4,4a,5,10b-hexahydrophenanthridin-6(2H)-one]
HSV-1 [1]
  anti-HSV-1 activity in NPCs: no anti-HSV-1 activity
HSV-1 [2]
  inhibition of HSV-1 infection (EGFP and RFP reporter expression) in brain organoids: no anti-HSV-1 activity

## O=C1N[C@H]2[C@H](O)[C@H](O)[C@@H](O)C[C@@H]2c2cc3c(cc21)OCO3 [Compound 2b, trans-dihydrolycoricidine, reference compound]
[8]; fibroblasts and hepatocytes
  toxicity in comparison to acyclovir: Slightly higher toxicity
[8]; iPSC-derived neural progenitor cells (NPCs)
  toxicity in comparison to acyclovir: lower toxicity
01SD NPC cultures
  concentration from which a reduction in cell viability was observed: ≥ 25 µM
HSV-1 [1]; 01SD NPCs
  reduction of the percentage of EGFP+-RFP+ cells compared to infected cells exposed to vehicle: 8016 fold
HSV-1 [1]; 9001 NPCs
  reduction of the percentage of EGFP+-RFP+ cells compared to infected cells exposed to vehicle: 424 fold
HSV-1 [2]
  inhibition of HSV-1 infection (EGFP and RFP reporter expression) in brain organoids: no expression of EGFP and RFP reporter genes
HSV-1 [9]; compared with acyclovir (ACV)
  inhibition of HSV-1 replication: more efficaciously than acyclovir
HSV-1 [9]; ex vivo mouse model
  HSV-1 reactivation from latency: prevents HSV-1 reactivation from latency
HSV-1 [9]; tk- strain and PAAv strain
  potency against HSV-1 strains resistant to ACV: moderate potency
[4]
  therapeutic selectivity: 19
[5]
  expression of activated transcription factor 4 (ATF4) (RNA-seq): Up-regulation
  expression of the EIF2A kinase EIF2AK3 (RNA-seq): Up-regulation
[6]
  CC50 at 48 h: 3480 nM
[7]
  eIF2α ~ P immunoreactivity: increased

## Nc1nc2c(ncn2COCCO)c(=O)[nH]1 [ACV, acyclovir]
01SD NPC cultures
  cell viability of treated cultures: comparable
